Read-outs that look alike come from different tables or passages of the source. Marks after values point to notes of the source that are not given here.
Tests used:
T. muris [1] = assay: In vitro drug uptake and elimination by T. muris; assay type: in vitro ADME, Trichuris muris; conditions: for MBZ in worms / OxP in worms: 24 h
[2] = assay type: in vivo, C57BL/10 mice
T. muris [3] = assay: Drug uptake by T. muris in vivo; parameters: species or system Trichuris muris in C57BL/10 mice; conditions: for drug quantity in worms, maximum: in vivo
adult H. polygyrus = conditions: 100 μM, 72 h; ref Unpublished data; cited from earlier work
H. polygyrus = conditions: oral 100 mg/kg; ref Unpublished data; cited from earlier work
adult T. muris = conditions: 72 h, ref Keiser et al., cited from earlier work
T. muris [4] = conditions: ref Keiser et al., 2013, cited from earlier work
trichuriasis = conditions: ref Keiser and Utzinger, 2008; cited from earlier work
[5] = oral 100 mg/kg, rats; ref Cowan et al., 2016; cited from earlier work

SMILES: COC(=O)Nc1nc2ccc(C(=O)c3ccccc3)cc2[nH]1 [Mebendazole, mebendazole]
- MBZ in worms (T. muris [1]; incubation at 5 μM): 482 ± 388 nmol/10 worms
- MBZ in worms (T. muris [1]; incubation at 10 μM): 626 ± 463 nmol/10 worms
- MBZ in worms (T. muris [1]; incubation at 25 μM): 672 ± 251 nmol/10 worms
- MBZ in worms (T. muris [1]; incubation at 50 μM): 826 ± 390 nmol/10 worms
- MBZ in worms (T. muris [1]; incubation at 75 μM): 910 ± 362 nmol/10 worms
- MBZ in worms (T. muris [1]; incubation at 100 μM): 861 ± 503 nmol/10 worms
- concentration at 2 h ([2]; C57BL/10, mouse, plasma, intraperitoneal, 100 mg/kg): 3.6 µM
- mebendazole in the mucosa of the large intestine ([2]; intraperitoneal 100 mg/kg, 2 h): 1 µmol/g
- mebendazole in the mucosa of the small intestine ([2]; intraperitoneal 100 mg/kg, 2 h): 4 µmol/g
- administered drug in the large intestine ([2]; oral 100 mg/kg, 2 h): 18 µmol/g
- administered drug in the mucosa of the large intestine ([2]; oral 100 mg/kg, 2 h): 3 µmol/g
- administered drug in the mucosa of the small intestine ([2]; oral 100 mg/kg, 2 h): 8 µmol/g
- administered drug in the small intestine ([2]; oral 100 mg/kg, 2 h): 222 µmol/g
- administered drug in the stomach ([2]; oral 100 mg/kg, 2 h): 215 µmol/g
- administered drug in the large intestine ([2]; oral 100 mg/kg, 5 h): 100 µmol/g
- administered drug in the mucosa of the large intestine ([2]; oral 100 mg/kg, 5 h): 5 µmol/g
- administered drug in the mucosa of the small intestine ([2]; oral 100 mg/kg, 5 h): 6 µmol/g
- administered drug in the large intestine ([2]; oral 100 mg/kg, 8 h): 40 µmol/g
- administered drug in the mucosa of the large intestine ([2]; oral 100 mg/kg, 8 h): 2 µmol/g
- administered drug in the mucosa of the small intestine ([2]; oral 100 mg/kg, third value, time not given): 4 µmol/g
- drug quantity in worms, maximum (T. muris [3]): ≤ 21 nmol per ten T. muris
- mebendazole in worms (T. muris [3]; intraperitoneal 100 mg/kg, 2 h): 5 nmol/10 worms
- mebendazole in worms (T. muris [3]; oral 100 mg/kg, unchanged over time, close to LLOQ): 20 nmol/10 worms
- Drug effect (adult H. polygyrus): 0% [100 μM] ^a
- Worm burden reduction (H. polygyrus): 59% [100 mg/kg] ^a
- Drug effect (adult T. muris; incubation at >600 μM, 2012): <50% ^b
- Worm burden reduction (T. muris [4]; oral 150 mg/kg): 68% [150 mg/kg] ^c
- cure rate (trichuriasis): below 36%

SMILES: CN1CCCN=C1/C=C/c1cccc(O)c1 [Oxantel pamoate, oxantel pamoate]
- EC50 (adult T. muris; serial dilution, 2013): 4 µM

SMILES: CN1CCCN=C1/C=C/c1cccc(O)c1.O=C(O)c1cc2ccccc2c(Cc2c(O)c(C(=O)O)cc3ccccc23)c1O [Oxantel pamoate, oxantel pamoate]
- time after which uptake ceased (T. muris [1]; exposure at 25 μM): 8 h
- OxP in worms (T. muris [1]; incubation at 5 μM): 13 ± 9 nmol/10 worms
- OxP in worms (T. muris [1]; incubation at 10 μM): 27 ± 9 nmol/10 worms
- OxP in worms (T. muris [1]; incubation at 25 μM): 65 ± 5 nmol/10 worms
- OxP in worms (T. muris [1]; incubation at 50 μM): 155 ± 41 nmol/10 worms
- OxP in worms (T. muris [1]; incubation at 75 μM): 169 ± 24 nmol/10 worms
- OxP in worms (T. muris [1]; incubation at 100 μM): 197 ± 46 nmol/10 worms
- oxantel pamoate in the large intestine ([2]; intraperitoneal 50 mg/kg, 2 h): 7 µmol/g
- oxantel pamoate in the mucosal tissue of the large intestine ([2]; intraperitoneal 50 mg/kg, 2 h): 17 µmol/g
- oxantel pamoate in the mucosal tissue of the small intestine ([2]; intraperitoneal 50 mg/kg, 2 h): 2 µmol/g
- oxantel pamoate in the small intestine ([2]; intraperitoneal 50 mg/kg, 2 h): 7 µmol/g
- oxantel pamoate in the stomach ([2]; intraperitoneal 50 mg/kg, 2 h): 5 µmol/g
- oxantel pamoate plasma level ([2]; intraperitoneal 50 mg/kg, 2 h, below the LLOQ): 0.21 µM
- plasma concentration of the administered drug ([2]; oral 100 mg/kg, 2-8 h (all times)): < 0.7 µM
- administered drug in the small intestinal mucosa ([2]; oral 100 mg/kg, 5 and 8 h): 2 µmol/g
- administered drug in the large intestine ([2]; oral 100 mg/kg, 2 h): 6 µmol/g
- administered drug in the mucosa of the small intestine ([2]; oral 100 mg/kg, 2 h): 31 µmol/g
- administered drug in the small intestine ([2]; oral 100 mg/kg, 2 h): 1951 µmol/g
- administered drug in the stomach ([2]; oral 100 mg/kg, 2 h): 5278 µmol/g
- administered drug in the large intestine ([2]; oral 100 mg/kg, 5 h): 359 µmol/g
- administered drug in the small intestine ([2]; oral 100 mg/kg, 5 h): 54 µmol/g
- administered drug in the stomach ([2]; oral 100 mg/kg, 5 h): 302 µmol/g
- administered drug in the large intestine ([2]; oral 100 mg/kg, 8 h): 110 µmol/g
- administered drug in the small intestine ([2]; oral 100 mg/kg, 8 h): 61 µmol/g
- administered drug in the stomach ([2]; oral 100 mg/kg, 8 h): 364 µmol/g
- drug quantity in worms, maximum (T. muris [3]): ≤ 34 nmol per ten T. muris
- oxantel pamoate in worms (T. muris [3]; intraperitoneal 50 mg/kg, 2 h): no compound could be quantified
- oxantel pamoate in worms (T. muris [3]; oral 100 mg/kg, 5 h): 34 nmol/10 worms
- oxantel pamoate in worms (T. muris [3]; oral 100 mg/kg, 8 h): 22 nmol/10 worms
- Worm burden reduction (T. muris [4]; oral 10 mg/kg): 93% [10 mg/kg] ^c
- oxantel pamoate in plasma [5]: could not quantify
